Among the test systems are Hs-578T; ACHN; HCT-15; UACC-257; SK-MEL-2; KM12; EKVX; SF-539; HCC 2998; A549; SF-268; SNB-19; MCF7; NCI-H522; RPMI-8226; SK-MEL-5; COLO 205; MDA-N; HOP-92.
Test in all cases: growth of human tumour cells (NCI), 48 h

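Where inhibition never reached the appropriate level, the endpoint shown equals the highest concentration tested. Otherwise, values were interpolated linearly from a five-concentration, 48-hour dose response in 96-well plates. GI50 is the concentration that inhibits growth by half.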 Active and inactive are the calls of the source. Rule as the data show it: active = GI50 up to about 1.1 µM and inactive = higher. A value given as a limit tells only on which side of the number the result lay.

On to `COc1cc(/C=C/C(=O)CC(=O)/C=C/c2cc(OC)c(O)c(OC)c2)cc(OC)c1O`, for which the GI50 is 7.93 µM (inactive) in the assay with Hs-578T; 9.31 µM (inactive) in the assay on ACHN; greater than 25 µM in the assay with HCT-15; 8.34 µM (inactive) in the assay on UACC-257; 7.57 µM (inactive) with SK-MEL-2; 6.15 µM (inactive) with KM12. The GI50 in the assay on EKVX is 12.6 µM (inactive); in the assay with SF-539, 8.77 µM (inactive); in the assay on HCC 2998, 5.37 µM (inactive); in the assay with A549, 8.26 µM (inactive); with SF-268 it was 5.37 µM (inactive); in the assay with SNB-19, 7.74 µM (inactive). Also, the GI50 with MCF7 is 14.9 µM (inactive); in the assay on NCI-H522, 5.81 µM (inactive); with RPMI-8226, 9.86 µM (inactive); with SK-MEL-5 it was 8.63 µM (inactive); in the assay on COLO 205, 10.1 µM (inactive); with MDA-N, 4.74 µM (inactive).

As for `CN1CC2=C(N=C(S)NC2c2ccc(Cl)cc2)/C(=C/c2ccc(Cl)cc2)C1` (centres undefined), the GI50 was 16.6 µM (inactive) in the assay on Hs-578T; 23 µM (inactive) with ACHN; 13.8 µM in the assay on HCT-15; 20 µM (inactive) in the assay on UACC-257; 13.3 µM (inactive) in the assay with SK-MEL-2; 18.5 µM (inactive) in the assay on KM12. For the same compound, the GI50 is 19.9 µM (inactive) with EKVX; 25.9 µM (inactive) in the assay on SF-539; 16.6 µM (inactive) in the assay on HCC 2998; 19 µM (inactive) in the assay on A549; 23.9 µM (inactive) with SF-268; > 10 µM (inactive) with SNB-19. In addition, the GI50 with MCF7 was 22 µM (inactive); with NCI-H522, 15.5 µM (inactive); in the assay on RPMI-8226, 25.8 µM (inactive); with SK-MEL-5, 13.3 µM (inactive); in the assay with COLO 205 it was 17.4 µM (inactive); in the assay on MDA-N, 19.7 µM (inactive).

Take `CC12Cc3cc4c(cc3C1(c1ccc([N+](=O)[O-])cc1)OCCO2)OCO4` (centres undefined): the GI50 in the assay with Hs-578T is 25.5 µM (inactive); with ACHN, 28 µM (inactive); with HCT-15, 44.2 µM; with UACC-257, > 100 µM (inactive); in the assay with SK-MEL-2 it was 32.2 µM (inactive); in the assay with KM12, > 100 µM (inactive). The GI50 in the assay with EKVX was 37.2 µM (inactive); in the assay on SF-539, 28 µM (inactive); with HCC 2998 it was > 100 µM (inactive); with A549, > 100 µM (inactive); in the assay with SF-268 it was 22.8 µM (inactive); with SNB-19 it was 28.6 µM (inactive). Moreover, the GI50 in the assay with MCF7 is 76.7 µM (inactive); in the assay with NCI-H522 it was 91 µM (inactive); in the assay with RPMI-8226 it was > 100 µM (inactive); in the assay on SK-MEL-5, > 100 µM (inactive); in the assay with COLO 205, > 100 µM (inactive); with MDA-N it was > 100 µM (inactive).

Consider `FC(F)(F)c1cccc(COCCN2CCN(Cc3cccc(C(F)(F)F)c3)CC2)c1`, for which the GI50 in the assay with Hs-578T is 19.5 µM (inactive); in the assay with ACHN, 15.7 µM (inactive); with HCT-15 it was 16.2 µM; in the assay on UACC-257 it was 17.4 µM (inactive); in the assay with KM12, 18.1 µM (inactive); with EKVX, 11.1 µM (inactive). For the same compound, the GI50 was 18 µM (inactive) in the assay on SF-539; 17 µM (inactive) with HCC 2998; 16.2 µM (inactive) in the assay on A549; 15.3 µM (inactive) in the assay on SF-268; 15.6 µM (inactive) in the assay with SNB-19; 15.7 µM (inactive) in the assay with MCF7. Besides, the GI50 in the assay on NCI-H522 is 13 µM (inactive); in the assay with SK-MEL-5, 15.8 µM (inactive); in the assay on COLO 205, 15.7 µM (inactive); in the assay on MDA-N it was 15.9 µM (inactive).

Turning to `C(=N\c1ccc(-c2nc3ccccc3s2)cc1)/c1ccc[nH]1`, the GI50 in the assay with Hs-578T was 19.7 µM (inactive); in the assay on ACHN, 20.7 µM (inactive); in the assay with HCT-15, 13.6 µM; with UACC-257, 17.1 µM (inactive); with SK-MEL-2 it was 17.3 µM (inactive); in the assay with KM12, 20.2 µM (inactive). Besides, the GI50 in the assay on EKVX was 17.2 µM (inactive); in the assay with SF-539, 17.6 µM (inactive); in the assay with HCC 2998, 16.5 µM (inactive); in the assay on A549, 25.6 µM (inactive); in the assay on HOP-92 it was 17.4 µM (inactive); with SF-268 it was 15.5 µM (inactive). The GI50 in the assay with SNB-19 is 29.4 µM (inactive); in the assay with NCI-H522, 14.1 µM (inactive); in the assay on RPMI-8226, 15.5 µM (inactive); in the assay on SK-MEL-5, 16.7 µM (inactive); with COLO 205, 16.3 µM (inactive); with MDA-N it was 18 µM (inactive).

Regarding `Cc1cc2nn(C3CCCO3)nc2cc1C` (centres undefined), the GI50 in the assay with Hs-578T was > 100 µM (inactive); with HCT-15, greater than 100 µM; in the assay with UACC-257 it was > 100 µM (inactive); with SK-MEL-2 it was > 100 µM (inactive); in the assay on EKVX, > 100 µM (inactive); with SF-539, > 100 µM (inactive). The GI50 in the assay on HCC 2998, with A549, in the assay with SF-268, in the assay on MCF7, in the assay with NCI-H522 and in the assay with SK-MEL-5 was > 100 µM (inactive) each time. The GI50 in the assay on COLO 205 and in the assay with MDA-N was > 100 µM (inactive) each time.

Consider `CC(=O)OC/C=C(/CCl)CCC(Br)C(C)(C)Br.CC(=O)OC/C=C(\CCl)CCC(Br)C(C)(C)Br` (centres undefined), for which the GI50 in the assay on Hs-578T was > 10 µM (inactive); with ACHN, > 10 µM (inactive); in the assay with HCT-15, greater than 10 µM; in the assay on UACC-257, > 10 µM (inactive); in the assay with SK-MEL-2, > 10 µM (inactive); with KM12, > 10 µM (inactive). The GI50 with EKVX, in the assay with SF-539, with HCC 2998, with A549, with SF-268 and in the assay on SNB-19 was > 10 µM (inactive) each time. For the same compound, the GI50 in the assay on MCF7, in the assay with NCI-H522, in the assay on RPMI-8226, in the assay with SK-MEL-5, in the assay on COLO 205 and in the assay with MDA-N was > 10 µM (inactive) in each case.

Regarding `CCOC(=O)/C(C(=S)NC)=C(/N)N1CCCC1`, the GI50 in the assay on Hs-578T was > 100 µM (inactive); with ACHN, > 100 µM (inactive); in the assay on HCT-15, greater than 100 µM; in the assay with UACC-257, > 100 µM (inactive); in the assay on SK-MEL-2 it was > 100 µM (inactive); in the assay with KM12, > 100 µM (inactive). Further, the GI50 in the assay with EKVX, with SF-539, in the assay on HCC 2998, with A549, in the assay with HOP-92 and in the assay on SF-268 was > 100 µM (inactive) throughout. In addition, the GI50 in the assay with SNB-19, with NCI-H522, in the assay on RPMI-8226, with SK-MEL-5, in the assay on COLO 205 and with MDA-N was > 100 µM (inactive) each time.

`CC1(C)CC(=O)C2=C(C1)NC1=C(C2)C(=O)CC(C)(C)C1`: the GI50 in the assay with Hs-578T was > 100 µM (inactive); in the assay with ACHN it was > 100 µM (inactive); in the assay with HCT-15, greater than 100 µM; with UACC-257 it was > 100 µM (inactive); with KM12, > 100 µM (inactive); with EKVX it was > 100 µM (inactive). For the same compound, the GI50 with SF-539, with HCC 2998, in the assay with A549, in the assay with SF-268, in the assay with SNB-19 and in the assay with MCF7 was > 100 µM (inactive) throughout. In addition, the GI50 in the assay on RPMI-8226, in the assay on SK-MEL-5, in the assay with COLO 205 and in the assay with MDA-N was > 100 µM (inactive) each time.

For `Nc1cc2c(nnn2C2OC(COCc3ccccc3)C(OCc3ccccc3)C2OCc2ccccc2)c(=O)[nH]1` (centres undefined), the GI50 is 97.1 µM (inactive) in the assay on Hs-578T; 32.8 µM (inactive) with ACHN; 40.3 µM in the assay on HCT-15; 14.9 µM (inactive) with UACC-257; 10.5 µM (inactive) in the assay on SK-MEL-2; 13 µM (inactive) in the assay on KM12. Besides, the GI50 in the assay with EKVX was 6.15 µM (inactive); in the assay on SF-539, 21.6 µM (inactive); with A549, 13.5 µM (inactive); in the assay on HOP-92, 28.4 µM (inactive); in the assay on SF-268 it was 29.4 µM (inactive); in the assay on SNB-19, 22.8 µM (inactive). Further, the GI50 is 5.48 µM (inactive) in the assay on MCF7; 18.9 µM (inactive) with NCI-H522; 7.26 µM (inactive) with SK-MEL-5; 7.33 µM (inactive) in the assay on COLO 205; 10.2 µM (inactive) in the assay with MDA-N.

For `CC(C)OC(=O)C1(C(C)C)CCc2ccc(C(=O)CCC(=O)O)cc21` (centres undefined), the GI50 is > 100 µM (inactive) with Hs-578T; > 100 µM (inactive) in the assay with ACHN; greater than 100 µM with HCT-15; > 100 µM (inactive) with UACC-257; > 100 µM (inactive) with SK-MEL-2; > 100 µM (inactive) in the assay with KM12. For the same compound, the GI50 in the assay on EKVX, with SF-539, in the assay on HCC 2998, with A549, with SF-268 and in the assay on SNB-19 was > 100 µM (inactive) throughout. The GI50 with MCF7, in the assay on NCI-H522, in the assay with RPMI-8226, in the assay on SK-MEL-5, in the assay on COLO 205 and in the assay on MDA-N was > 100 µM (inactive) in each case.

For the compound `CNC(=O)C1OC(n2cnc3c(NCc4cccc(I)c4)nc(Cl)nc32)C(O)C1O` (centres undefined), the GI50 in the assay on Hs-578T is 1.55 µM (inactive); with ACHN it was 11.8 µM (inactive); in the assay with HCT-15 it was 1.06 µM; in the assay with UACC-257, 11.4 µM (inactive); with SK-MEL-2, 14.7 µM (inactive); with KM12, 12 µM (inactive). For the same compound, the GI50 in the assay on EKVX is 13.5 µM (inactive); in the assay with SF-539 it was 11 µM (inactive); with SF-268, 11.4 µM (inactive); with SNB-19 it was 12.4 µM (inactive); with MCF7, 12.8 µM (inactive); with RPMI-8226, 18.9 µM (inactive). For the same compound, the GI50 in the assay on SK-MEL-5 is 12 µM (inactive); in the assay with COLO 205 it was 22.5 µM (inactive); in the assay on MDA-N, 20.7 µM (inactive).
